Tested on: Hepatitis C replicon
Experiment: HCV replicon assay (NPT ELISA readout) in Huh-7 replicon-containing cells
Type: cell-based, Hepatitis C virus
Conditions: Hepatitis C virus, 72 h; HCV replicon in Huh-7 cells, three days incubation
In short: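 Huh-7 cells carrying a neo-containing HCV subgenomic replicon (NS3-NS5B) were plated overnight, then exposed to compound (generally 6 concentrations, 10 to 0.03 μM) for three days at 37 °C. Replication was read as NPT level by captured ELISA; interferon alpha served as positive control.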

Compound: O=C(N[C@@H]1C[C@H]2C(=O)N[C@]3(C(=O)NS(=O)(=O)C4CC4)C[C@H]3/C=C\CCCCC[C@H](CC(=O)N3CCC(F)(F)CC3)C(=O)N2C1)c1cc(-c2ccccc2)nc2ccccc12 [Compound 79, (2R,6R,13aS, 14aR,16aS,Z)-N-(cyclopropylsulfonyl)-6-(2-(4,4-difluoropiperidin-1-yl)-2-oxoethyl)-5,16-dioxo-2-(2-phenylquinoline-4-carboxamido)-1,2,3,5,6,7,8,9,10,11, 13a,14,14a,15,16,16a-hexadecahydrocyclopropa [e]pyrrolo[1,2-a][1,4] diazacyclopentadecine-14a-carboxamide]
- EC50: < 1000 nM

Compound: O=C(N[C@@H]1C[C@H]2C(=O)N[C@]3(C(=O)NS(=O)(=O)C4CC4)C[C@H]3/C=C\CCCCC[C@H](CC(=O)N3CCCCC3)C(=O)N2C1)c1cc(-c2ccccc2)nc2ccccc12 [Compound 81, (2R,6R,14aR,16aS,Z)-N-(cyclopropylsulfonyl)-5,16-dioxo-6-(2-oxo-2-(piperidin-1-yl)ethyl)-2-(2-phenylquinoline-4-carboxamido)-1,2,3,5,6,7,8,9,10,11, 13a,14,14a,15,16,16a-hexadecahydrocyclopropa [e]pyrrolo[1,2-a][1,4] diazacyclopentadecine-14a-carboxamide]
- EC50: < 1000 nM

Compound: O=C1N[C@]2(C(=O)NS(=O)(=O)C3CC3)C[C@H]2/C=C\CCCCC[C@H](CC(=O)N2CCC(F)(F)CC2)C(=O)N2C[C@H](Oc3cc(-c4ccccn4)nc4c5c(ccc34)OCC5)C[C@@H]12 [Compound 82, (2R,6R,14aR,16aS,Z)-N-(cyclopropylsulfonyl)-6-(2-(4,4-difluoropiperidin-1-yl)-2-oxoethyl)-5,16-dioxo-2-(2-(pyridin-2-yl)-8,9-dihydrofuro[2,3-h]quinolin-4-yloxy)-1,2,3,5,6,7,8,9,10,11, 13a,14,14a,15,16,16a-hexadecahydrocyclopropa [e]pyrrolo[1,2-a][1,4] diazacyclopentadecine-14a-carboxamide]
- EC50: < 1000 nM

Compound: O=C1N[C@]2(C(=O)NS(=O)(=O)C3CC3)C[C@H]2/C=C\CCCCC[C@H](CC(=O)N2CCC(C(F)(F)F)CC2)C(=O)N2C[C@H](Oc3cc(-c4ccccn4)nc4c5c(ccc34)OCC5)C[C@@H]12 [Compound 83, (2R,6R,14aR,16aS,Z)-N-(cyclopropylsulfonyl)-5,16-dioxo-6-(2-oxo-2-(4-(trifluoromethyl)piperidin-1-yl)ethyl)-2-(2-(pyridin-2-yl)-8,9-dihydrofuro[2,3-h]quinolin-4-yloxy)-1,2,3,5,6,7,8,9,10,11, 13a,14,14a,15,16,16a-hexadecahydrocyclopropa [e]pyrrolo[1,2-a][1,4] diazacyclopentadecine-14a-carboxamide]
- EC50: < 1000 nM

Compound: O=C1N[C@]2(C(=O)NS(=O)(=O)C3CC3)C[C@H]2/C=C\CCCCC[C@H](CC(=O)N2CCCCC2)C(=O)N2C[C@H](Oc3cc(-c4ccccn4)nc4c5c(ccc34)OCC5)C[C@@H]12 [Compound 84, (2R,6R,14aR,16aS,Z)-N-(cyclopropylsulfonyl)-5,16-dioxo-6-(2-oxo-2-(piperidin-1-yl)ethyl)-2-(2-(pyridin-2-yl)-8,9-dihydrofuro[2,3-h]quinolin-4-yloxy)-1,2,3,5,6,7,8,9,10,11, 13a,14,14a,15,16,16a-hexadecahydrocyclopropa [e]pyrrolo[1,2-a][1,4] diazacyclopentadecine-14a-carboxamide]
- EC50: > 10000 nM

Compound: COc1ccc2c(O[C@@H]3C[C@H]4C(=O)N[C@]5(C(=O)NS(=O)(=O)C6CC6)C[C@H]5/C=C\CCCCC[C@H](CC(=O)N5CCN(C(=O)N6CCCC6)CC5)C(=O)N4C3)cc(-c3ccccc3)nc2c1 [Compound 85, (2R,6R,14aR,16aS,Z)-N-(cyclopropylsulfonyl)-2-(7-methoxy-2-phenylquinolin-4-yloxy)-5,16-dioxo-6-(2-oxo-2-(4-(pyrrolidine-1-carbonyl)piperazin-1-yl)ethyl)-1,2,3,5,6,7,8,9,10,11, 13a,14,14a,15,16,16a-hexadecahydrocyclopropa [e]pyrrolo[1,2-a][1,4] diazacyclopentadecine-14a-carboxamide]
- EC50: < 1000 nM

Compound: CCS(=O)(=O)N1CCN(C(=O)C[C@H]2CCCCC/C=C\[C@@H]3C[C@@]3(C(=O)NS(=O)(=O)C3CC3)NC(=O)[C@@H]3C[C@@H](Oc4cc(-c5ccccc5)nc5cc(OC)ccc45)CN3C2=O)CC1 [Compound 86, (2R,6R,14aR,16aS,Z)-N-(cyclopropylsulfonyl)-6-(2-(4-(ethylsulfonyl)piperazin-1-yl)-2-oxoethyl)-2-(7-methoxy-2-phenylquinolin-4-yloxy)-5,16-dioxo-1,2,3,5,6,7,8,9,10,11, 13a,14,14a,15,16,16a-hexadecahydrocyclopropa [e]pyrrolo[1,2-a][1,4] diazacyclopentadecine-14a-carboxamide]
- EC50: < 1000 nM

Compound: COc1ccc2c(O[C@@H]3C[C@H]4C(=O)N[C@]5(C(=O)NS(=O)(=O)C6CC6)C[C@H]5/C=C\CCCCC[C@H](CC(=O)N5CCN(c6cnccn6)CC5)C(=O)N4C3)cc(-c3ccccc3)nc2c1 [Compound 87, (2R,6R,14aR,16aS,Z)-N-(cyclopropylsulfonyl)-2-(7-methoxy-2-phenylquinolin-4-yloxy)-5,16-dioxo-6-(2-oxo-2-(4-(pyrazin-2-yl)piperazin-1-yl)ethyl)-1,2,3,5,6,7,8,9,10,11, 13a,14,14a,15,16,16a-hexadecahydrocyclopropa [e]pyrrolo[1,2-a][1,4] diazacyclopentadecine-14a-carboxamide]
- EC50: < 1000 nM

Compound: COc1ccc2c(O[C@@H]3C[C@H]4C(=O)N[C@]5(C(=O)NS(=O)(=O)C6CC6)C[C@H]5/C=C\CCCCC[C@H](CC(=O)OC(C)(C)C)C(=O)N4C3)cc(-c3ccccn3)nc2c1Cl [Compound 88, tert-butyl 2-((2R,6R,14aR, 16aS,Z)-2-(8-chloro-7-methoxy-2-(pyridin-2-yl)quinolin-4-yloxy)-14a-(cyclopropylsulfonyl-carbamoyl)-5,16-dioxo-1,2,3,5,6,7,8,9,10,11, 13a,14,14a,15,16,16a-hexadecahydrocyclopropa [e]pyrrolo[1,2-a][1,4]diazacyclopentadecin-6-yl)acetate]
- EC50: < 1000 nM

Compound: COc1ccc2c(O[C@@H]3C[C@H]4C(=O)N[C@]5(C(=O)NS(=O)(=O)C6CC6)C[C@H]5/C=C\CCCCC[C@H](CC(=O)O)C(=O)N4C3)cc(-c3ccccn3)nc2c1Cl [Compound 89, 2-((2R,6R,14aR, 16aS,Z)-2-(8-chloro-7-methoxy-2-(pyridin-2-yl)quinolin-4-yloxy)-14a-(cyclopropylsulfonyl-carbamoyl)-5,16-dioxo-1,2,3,5,6,7,8,9,10,11, 13a,14,14a,15,16,16a-hexadecahydrocyclopropa [e]pyrrolo[1,2-a][1,4]diazacyclopentadecin-6-yl)acetic acid]
- EC50: < 1000 nM

Compound: COc1ccc2c(O[C@@H]3C[C@H]4C(=O)N[C@]5(C(=O)NS(=O)(=O)C6CC6)C[C@H]5/C=C\CCCCC[C@H](CC(=O)N5CCCCC5)C(=O)N4C3)cc(-c3ccccn3)nc2c1Cl [Compound 90, (2R,6R,14aR,16aS,Z)-2-(8-chloro-7-methoxy-2-(pyridin-2-yl)quinolin-4-yloxy)-N-(cyclopropylsulfonyl)-5, 16-dioxo-6-(2-oxo-2-(piperidin-1-yl)ethyl)-1,2,3,5,6,7,8,9,10,11, 13a,14,14a,15,16,16a-hexadecahydrocyclopropa [e]pyrrolo[1,2-a][1,4] diazacyclopentadecine-14a-carboxamide]
- EC50: < 1000 nM

Compound: COc1ccc2c(O[C@@H]3C[C@H]4C(=O)N[C@]5(C(=O)NS(=O)(=O)C6CC6)C[C@H]5/C=C\CCCCC[C@H](CC(=O)N5CCCC(F)(F)C5)C(=O)N4C3)cc(-c3ccccn3)nc2c1Cl [Compound 91, (2R,6R,14aR,16aS,Z)-2-(8-chloro-7-methoxy-2-(pyridin-2-yl)quinolin-4-yloxy)-N-(cyclopropylsulfonyl)-6-(2-(3,3-difluoropiperidin-1-yl)-2-oxoethyl)-5,16-dioxo-1,2,3,5,6,7,8,9,10,11, 13a,14,14a,15,16,16a-hexadecahydrocyclopropa [e]pyrrolo[1,2-a][1,4] diazacyclopentadecine-14a-carboxamide]
- EC50: < 1000 nM

Compound: COc1ccc2c(O[C@@H]3C[C@H]4C(=O)N[C@]5(C(=O)NS(=O)(=O)C6CC6)C[C@H]5/C=C\CCCCC[C@H](CC(=O)N5CCC(C(F)(F)F)CC5)C(=O)N4C3)cc(-c3ccccn3)nc2c1Cl [Compound 92, (2R,6R,14aR,16aS,Z)-2-(8-chloro-7-methoxy-2-(pyridin-2-yl)quinolin-4-yloxy)-N-(cyclopropylsulfonyl)-5,16-dioxo-6-(2-oxo-2-(4-(trifluoromethyl)piperidin-1-yl)ethyl)-1,2,3,5,6,7,8,9,10,11, 13a,14,14a,15,16,16a-hexadecahydrocyclopropa [e]pyrrolo[1,2-a][1,4] diazacyclopentadecine-14a-carboxamide]
- EC50: < 1000 nM

Compound: COc1ccc2c(O[C@@H]3C[C@H]4C(=O)N[C@]5(C(=O)NS(=O)(=O)C6CC6)C[C@H]5/C=C\CCCCC[C@H](CC(=O)N5CCC(F)(F)CC5)C(=O)N4C3)cc(-c3ccccn3)nc2c1Cl [Compound 93, (2R,6R,14aR,16aS,Z)-2-(8-chloro-7-methoxy-2-(pyridin-2-yl)quinolin-4-yloxy)-N-(cyclopropylsulfonyl)-6-(2-(4,4-difluoropiperidin-1-yl)-2-oxoethyl)-5,16-dioxo-1,2,3,5,6,7,8,9,10,11, 13a,14,14a,15,16,16a-hexadecahydrocyclopropa [e]pyrrolo[1,2-a][1,4] diazacyclopentadecine-14a-carboxamide]
- EC50: < 1000 nM

Compound: COc1ccc2c(O[C@@H]3C[C@H]4C(=O)N[C@]5(C(=O)NS(=O)(=O)C6CC6)C[C@H]5/C=C\CCCCC[C@H](CC(=O)N5CCC(F)(F)C5)C(=O)N4C3)cc(-c3ccccn3)nc2c1Cl [Compound 94, (2R,6R,14aR,16aS,Z)-2-(8-chloro-7-methoxy-2-(pyridin-2-yl)quinolin-4-yloxy)-N-(cyclopropylsulfonyl)-6-(2-(3,3-difluoropyrrolidin-1-yl)-2-oxoethyl)-5,16-dioxo-1,2,3,5,6,7,8,9,10,11, 13a,14,14a,15,16,16a-hexadecahydrocyclopropa [e]pyrrolo[1,2-a][1,4] diazacyclopentadecine-14a-carboxamide]
- EC50: < 1000 nM

Source: US8697641B2, “4-amino-4-oxobutanoyl peptide cyclic analogues, inhibitors of viral replication” (Achillion Pharmaceuticals, Inc., priority 2008, dated 2014)
